Laboratory results taken from patent publication US11820766B2, “Monoacylglycerol lipase modulators” (Janssen Pharmaceutica NV, priority 2018, dated 2023).

target: T1, human MGL from HeLa cells (Homo sapiens, UniProt Q99685); experiment: In vitro MGL activity assay: [glycerol-1,3-3H]-oleyl glycerol cleavage by MGL from HeLa cells; assay type: biochemical; settings: 300 nM [Glycerol-1,3-3H]-oleyl glycerol, one hour
T1 construct: combining endogenously expressed MGL from HeLa cells with test compounds; endogenous in cells; host or cells: HeLa cells / cell homogenates
T1 sequence (Q99685 1-303): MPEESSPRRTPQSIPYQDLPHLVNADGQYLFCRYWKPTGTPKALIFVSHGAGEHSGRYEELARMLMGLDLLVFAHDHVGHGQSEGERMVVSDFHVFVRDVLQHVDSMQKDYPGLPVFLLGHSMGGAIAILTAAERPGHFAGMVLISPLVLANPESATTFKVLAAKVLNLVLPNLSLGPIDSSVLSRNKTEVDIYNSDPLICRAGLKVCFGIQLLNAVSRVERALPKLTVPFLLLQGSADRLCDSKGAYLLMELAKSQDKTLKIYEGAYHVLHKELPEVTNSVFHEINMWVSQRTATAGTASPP
Description: MGL is the predominant hydrolase in HeLa cells/cell homogenates.

SMILES	IC50 [nM]
C[C@H]1c2nn(C)c(-c3cc(F)c(F)c(F)c3)c2CCN1C(=O)c1cnn(C)c1[C@H]1CC1F (mixture of isomers) [Example 339, ((S)-2,7-Dimethyl-3-(3,4,5-trifluorophenyl)-2,4,5,7-tetrahydro-6H-pyrazolo[3,4-c]pyridin-6-yl)(cis-5-(2-fluorocyclopropyl)-1-methyl-1H-pyrazol-4-yl)methanone]	3.01
C[C@H]1c2nn(C)c(-c3cc(F)c(F)c(F)c3)c2CCN1C(=O)c1cnn(C)c1C1CC1F (mixture of isomers) [Example 340, ((S)-2,7-Dimethyl-3-(3,4,5-trifluorophenyl)-2,4,5,7-tetrahydro-6H-pyrazolo[3,4-c]pyridin-6-yl)(trans-5-(2-fluorocyclopropyl)-1-methyl-1H-pyrazol-4-yl)methanone]	32.5
CC1c2nn(C34CC(C3)C4)c(-c3ccccc3)c2CCN1C(=O)c1cnn(C)c1C1CC1 (racemic) [Example 615, racemic-(2-(Bicyclo[1.1.1]pentan-1-yl)-7-methyl-3-phenyl-2,4,5,7-tetrahydro-6H-pyrazolo[3,4-c]pyridin-6-yl)(5-cyclopropyl-1-methyl-1H-pyrazol-4-yl)methanone]	821
C[C@H]1c2nn(C)c(-c3cc(F)c(F)c(F)c3)c2CCN1C(=O)c1cnn(C)c1C1CC1(F)F (single isomer, unassigned) [Example 337, (5-((R*)-2,2-difluorocyclopropyl)-1-methyl-1H-pyrazol-4-yl)((S)-2,7-dimethyl-3-(3,4,5-trifluorophenyl)-2,4,5,7-tetrahydro-6H-pyrazolo[3,4-c]pyridin-6-yl)methanone]	8.07
C[C@H]1c2nn(C)c(-c3cc(F)c(F)c(F)c3)c2CCN1C(=O)c1cnn(C)c1C1CC1(F)F (single isomer, unassigned) [Example 338, (5-((S*)-2,2-Difluorocyclopropyl)-1-methyl-1H-pyrazol-4-yl)((S)-2,7-dimethyl-3-(3,4,5-trifluorophenyl)-2,4,5,7-tetrahydro-6H-pyrazolo[3,4-c]pyridin-6-yl)methanone]	14.2
CC1c2nn(C34CC(C3)C4)c(-c3ccccc3)c2CCN1C(=O)c1cnn(C)c1C1CC1 (single isomer, unassigned) [Example 342, (S*)-(2-(Bicyclo[1.1.1]pentan-1-yl)-7-methyl-3-phenyl-2,4,5,7-tetrahydro-6H-pyrazolo[3,4-c]pyridin-6-yl)(5-cyclopropyl-1-methyl-1H-pyrazol-4-yl)methanone]	255

same assay, conditions: 300 nM [Glycerol-1,3-3H]-oleyl glycerol, one hour incubation

SMILES	IC50 [nM]
CC1c2nn(C)c(-c3ccccc3)c2CCN1C(=O)c1ccc2ncccc2c1 (racemic) [Example 110, (2,7-Dimethyl-3-phenyl-2,4,5,7-tetrahydro-6H-pyrazolo[3,4-c]pyridin-6-yl)(quinolin-6-yl)methanone]	19.9
CC1c2nn(C)c(-c3cccc(Cl)c3)c2CCN1C(=O)c1cnc2ccoc2c1 (racemic) [Example 126, (3-(3-Chlorophenyl)-2,7-dimethyl-2,4,5,7-tetrahydro-6H-pyrazolo[3,4-c]pyridin-6-yl)(furo[3,2-b]pyridin-6-yl)methanone]	130
CC1c2nn(C)c(-c3cccc(Cl)c3)c2CCN1C(=O)c1ccc2nccnc2c1 (racemic) [Example 132, (3-(3-Chlorophenyl)-2,7-dimethyl-2,4,5,7-tetrahydro-6H-pyrazolo[3,4-c]pyridin-6-yl)(quinoxalin-6-yl)methanone]	18.4
C[C@@H]1c2nn(C)c(-c3ccccc3)c2CCN1C(=O)c1ccc2ncccc2c1 (single isomer, unassigned) [Example 111]	8240
C[C@H]1c2nn(C)c(-c3ccccc3)c2CCN1C(=O)c1ccc2ncccc2c1 (single isomer, unassigned) [Example 112]	6.96
C[C@H]1c2nn(-c3ccccc3)c(-c3ccccc3)c2CCN1C(=O)c1ccc2ncccc2c1 (single isomer, unassigned) [Example 115]	44.3
C[C@@H]1c2nn(C)c(-c3cccc(Cl)c3)c2CCN1C(=O)c1cnc2ccoc2c1 (single isomer, unassigned) [Example 127]	> 10000
C[C@H]1c2nn(C)c(-c3cccc(Cl)c3)c2CCN1C(=O)c1cnc2ccoc2c1 (single isomer, unassigned) [Example 128]	26.3
C[C@@H]1c2nn(C)c(-c3cccc(Cl)c3)c2CCN1C(=O)c1ccc2nccnc2c1 (single isomer, unassigned) [Example 133]	> 10000
C[C@H]1c2nn(C)c(-c3cccc(Cl)c3)c2CCN1C(=O)c1ccc2nccnc2c1 (single isomer, unassigned) [Example 134]	4.27
C[C@H]1c2nn(C)c(-c3cc(F)cc(F)c3)c2CCN1C(=O)c1ccc2ncccc2c1 (single isomer, unassigned) [Example 159]	7.3
C[C@H]1c2nn(C)c(-c3cc(F)cc(F)c3)c2CCN1C(=O)c1ccc2nccnc2c1 (single isomer, unassigned) [Example 168]	7.04
C[C@@H]1c2nn(C)c(-c3cc(F)cc(F)c3)c2CCN1C(=O)c1ccc2nccnc2c1 (single isomer, unassigned) [Example 169]	3740
Cn1nc2c(c1-c1ccccc1)CCN(C(=O)c1cccc3ccccc13)C2 [Example 1, (2-Methyl-3-phenyl-2,4,5,7-tetrahydro-6H-pyrazolo[3,4-c]pyridin-6-yl)(naphthalen-1-yl)methanone]	13
Cn1nc2c(c1C1CC1)CCN(C(=O)c1cccc(Cl)c1Cl)C2 [Example 2, (3-Cyclopropyl-2-methyl-2,4,5,7-tetrahydro-6H-pyrazolo[3,4-c]pyridin-6-yl)(2,3-dichlorophenyl)methanone]	4600
Cn1nc2c(c1C1CC1)CCN(C(=O)c1cccc3ccccc13)C2 [Example 3, (3-Cyclopropyl-2-methyl-2,4,5,7-tetrahydro-6H-pyrazolo[3,4-c]pyridin-6-yl)(naphthalen-1-yl)methanone]	799
Cn1nc2c(c1-c1ccccc1)CCN(C(=O)c1cccc(OC(F)(F)F)c1F)C2 [Example 4, (2-Fluoro-3-(trifluoromethoxy)phenyl)(2-methyl-3-phenyl-2,4,5,7-tetrahydro-6H-pyrazolo[3,4-c]pyridin-6-yl)methanone]	433
COc1cccc(C(F)(F)F)c1C(=O)N1CCc2c(nn(C)c2-c2ccccc2)C1 [Example 5, (2-Methoxy-6-(trifluoromethyl)phenyl)(2-methyl-3-phenyl-2,4,5,7-tetrahydro-6H-pyrazolo[3,4-c]pyridin-6-yl)methanone]	> 10000
COc1cc(C(=O)N2CCc3c(nn(C)c3-c3ccccc3)C2)cc(C(F)(F)F)c1 [Example 6, (3-Methoxy-5-(trifluoromethyl)phenyl)(2-methyl-3-phenyl-2,4,5,7-tetrahydro-6H-pyrazolo[3,4-c]pyridin-6-yl)methanone]	365
COc1c(C)cccc1C(=O)N1CCc2c(nn(C)c2-c2ccccc2)C1 [Example 7, (2-Methoxy-3-methylphenyl)(2-methyl-3-phenyl-2,4,5,7-tetrahydro-6H-pyrazolo[3,4-c]pyridin-6-yl)methanone]	113
CCc1c(OC)cccc1C(=O)N1CCc2c(nn(C)c2-c2ccccc2)C1 [Example 8, (2-Ethyl-3-methoxyphenyl)(2-methyl-3-phenyl-2,4,5,7-tetrahydro-6H-pyrazolo[3,4-c]pyridin-6-yl)methanone]	1840
COc1ccc(C(=O)N2CCc3c(nn(C)c3-c3ccccc3)C2)cc1OC [Example 9, (3,4-Dimethoxyphenyl)(2-methyl-3-phenyl-2,4,5,7-tetrahydro-6H-pyrazolo[3,4-c]pyridin-6-yl)methanone]	441
COc1cccc(OC)c1C(=O)N1CCc2c(nn(C)c2-c2ccccc2)C1 [Example 10, (2,6-Dimethoxyphenyl)(2-methyl-3-phenyl-2,4,5,7-tetrahydro-6H-pyrazolo[3,4-c]pyridin-6-yl)methanone]	> 10000
COc1cc(OC)cc(C(=O)N2CCc3c(nn(C)c3-c3ccccc3)C2)c1 [Example 11, (3,5-Dimethoxyphenyl)-(2-methyl-3-phenyl-5,7-dihydro-4H-pyrazolo[3,4-c]pyridin-6-yl)methanone]	187
Cn1nc2c(c1-c1ccccc1)CCN(C(=O)c1cccc(O)c1Cl)C2 [Example 12, (2-Chloro-3-hydroxyphenyl)(2-methyl-3-phenyl-2,4,5,7-tetrahydro-6H-pyrazolo[3,4-c]pyridin-6-yl)methanone]	3420
COc1cccc(C(=O)N2CCc3c(nn(C)c3-c3ccccc3)C2)c1Cl [Example 13, (2-Chloro-3-methoxyphenyl)(2-methyl-3-phenyl-2,4,5,7-tetrahydro-6H-pyrazolo[3,4-c]pyridin-6-yl)methanone]	16.8
COc1c(Cl)cccc1C(=O)N1CCc2c(nn(C)c2-c2ccccc2)C1 [Example 14, (3-Chloro-2-methoxy-phenyl)-(2-methyl-3-phenyl-5,7-dihydro-4H-pyrazolo[3,4-c]pyridin-6-yl)methanone]	2590
COc1cc(Cl)cc(C(=O)N2CCc3c(nn(C)c3-c3ccccc3)C2)c1 [Example 16, (3-Chloro-5-methoxyphenyl)(2-methyl-3-phenyl-2,4,5,7-tetrahydro-6H-pyrazolo[3,4-c]pyridin-6-yl)methanone]	77.9
Cc1cccc(C(=O)N2CCc3c(nn(C)c3-c3ccccc3)C2)c1N [Example 17, (2-Amino-3-methylphenyl)(2-methyl-3-phenyl-2,4,5,7-tetrahydro-6H-pyrazolo[3,4-c]pyridin-6-yl)methanone]	1400
